In patent US12612411B1, “Imidazopyrazine derivatives, process for preparation thereof, and their uses as luciferins” (INSTITUT PASTEUR, priority 2017, dated 2026) one finds Km data, which are given here for two compounds.

The target in the assay is T1, nanoKAZ (Oplophorus gracilirostris, UniProt Q9GV45, A31E/A60N/A81I/F95D/I117V/K70R/L54V/L99Q/M102K/N193R/P142E/Q151K/Q38R/Q45L/V71I/Y165I).
T1 construct: luciferase catalytic domain (nanoKAZ, 19 kDa) from the Oplophorus-derived luciferase
Put plainly: Michaelis-Menten parameters of nanoKAZ from Lineweaver-Burk representation. The note with it: extrapolated from Lineweaver-Burk, constant enzyme concentration. The class given is biochemical. From the text: The two dotted lines (linear regression) are converging to the same intercept with the x-axis (−1/Km) and different intercepts with the y-axis (1/Vmax). The equations of the two linear regressions are indicated and the corresponding correlation factors (R^2) with the experimental data are reported.
Considering the hypothesis of a Michaelis-Menten mechanism for the nanoKAZ, the Km and Vmax were extrapolated from the Lineweaver-Burk representation of the enzyme activity catalyzing either Q-1 or Q-3. […] The data have been fitted with linear regression with satisfying high correlation factors (R). The Km are the same for both substrates (Km=2 μM) whereas the Vmax is 3-times lower for Q-1 (0.6·10^6 RLU/sec) than for Q-3 (2.0·10^6 RLU/sec).

T1 sequence (Q9GV45 other isoform, or with tags, fused parts or gaps with the stated changes): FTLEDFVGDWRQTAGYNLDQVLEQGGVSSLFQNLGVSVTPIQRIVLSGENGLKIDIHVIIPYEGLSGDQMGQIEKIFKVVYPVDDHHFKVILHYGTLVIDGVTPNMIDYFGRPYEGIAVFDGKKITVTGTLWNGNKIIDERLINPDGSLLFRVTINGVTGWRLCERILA

Take `O=c1c(Cc2ccco2)nc2c(Cc3ccccc3)[nH]c(-c3ccccc3)cn1-2` [Q-1, 8-benzyl-2-(furan-2-ylmethyl)-6-phenylimidazo[1,2-a]pyrazin-3(7H)-one, reference compound]: the Km (as a rule, the substrate concentration at which the rate is half of its maximum) was 2 µM.
In the case of `Cc1ccc(Cc2nc3c(Cc4ccccc4)[nH]c(-c4ccccc4)cn-3c2=O)o1` [Q-3, 8-benzyl-2-((5-methylfuran-2-yl)methyl)-6-phenylimidazo[1,2-a]pyrazin-3(7H)-one], the Michaelis constant (Km) is 2 µM.
